The text below walks through data of BindingDB's records for doi:10.1016/j.bmc.2021.116215 (Research Triangle Institute, 2021).

For orientation: IC50 means the midpoint of a concentration-inhibition curve.

The test addresses Cannabinoid receptor 1 (Homo sapiens, UniProt P21554). The test is described as follows: Allosteric antagonist activity at human CB1 receptor expressed in CHO-RD-HGA16 cells overexpressing Galpha16 assessed as inhibition of CP55940-stimulated calcium mobilization preincubated for 15 mins followed by agonist addition and measured every 1 sec for 90 secs by Calcium-3 dye based FLIPR assay.

Cannabinoid receptor 1, sequence (P21554 whole entry): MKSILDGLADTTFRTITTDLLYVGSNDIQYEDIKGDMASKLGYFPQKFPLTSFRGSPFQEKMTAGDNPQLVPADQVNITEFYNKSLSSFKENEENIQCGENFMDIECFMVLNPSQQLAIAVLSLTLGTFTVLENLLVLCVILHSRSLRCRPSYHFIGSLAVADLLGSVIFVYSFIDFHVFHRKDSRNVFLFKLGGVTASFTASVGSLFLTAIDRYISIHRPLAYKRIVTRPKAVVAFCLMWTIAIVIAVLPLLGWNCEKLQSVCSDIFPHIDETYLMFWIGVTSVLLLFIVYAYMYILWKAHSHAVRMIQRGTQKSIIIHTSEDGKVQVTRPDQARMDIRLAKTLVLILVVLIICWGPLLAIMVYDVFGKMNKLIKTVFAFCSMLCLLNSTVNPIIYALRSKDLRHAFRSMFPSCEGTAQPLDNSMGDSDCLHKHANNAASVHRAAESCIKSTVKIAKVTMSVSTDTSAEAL

As to `O=C(NC[C@H]1C[C@@H]1c1ccccc1)Nc1ccc(Cl)cc1`, the IC50 amounted to 2.51 µM.
